# From US9155301B2, “Antimicrobial agent comprising a cysteine component covalently bound to a substrate in particular by binding through an S-S bridge via a spacer molecule” (priority 2005, dated 2015)
# System: Staphylococcus aureus (B5381, a clinical isolate)
# Assay: Inhibition of bacterial growth in culture incubated with modified surface
# Type: cell-based
# Details: Example 11; dissolved in culture at 50 μg/ml and 5 μg/ml; initial culture exceeding 4 million cfu/ml
# Protocol: The following analysis was performed with three (3) different strains of bacteria, but the applications are not limited to these: A clinical isolate (from a patient with sepsis) of Gram positive bacterium Staphylococcus aureus, (a clinical isolate B5381), the Gram positive bacterium Bacillus megaterium (strain Bm11), the Gram negative bacterium Escherichia coli (strain D21). This selection of bacteria comprises both Gram positive and Gram negative bacteria including bacteria that are of significant problems clinically.
# […] LB medium (Luria Bertani broth) has been inoculated with specific bacterial strain, but not limited to this medium. The strain selected has been plated on an agar plate of selected medium the day before, and permitted to grow over night at 37° C. Several colonies were scraped from the plate and used to inoculate the medium which subsequently was allowed to grow up to an optical density of 0.4. […] The number of bacteria was determined by plating serial dilutions and counting colonies in the appropriate dilutions. […]
# Subsequent to incubation (in the presently described case: 2.5 h), the disc was removed from each tube using a sterile pair of tweezers. The culture in which the disc had been incubated was in parallel transferred to a separate sterile eppendorf tube, and its titer was determined as described. […]
smiles,measurement,value
"N[C@@H](CS)C(=O)O [dissolved L-cysteine, L-cysteine]",inhibition of growth in culture with dissolved substance,No inhibition
